US20150299218A1, “Heterocyclic Compounds As Inhibitors Of The Sodium Iodide Symporter” (COMMISSARIAT A L'ENERGIE ATOMIQUE ET AUX ENERGIES …, priority 2012, published 2015)

Test system: not given
Experiment: not given
Details: concentration up to 200 μM; cited from earlier work

SMILES	cytotoxicity
Brc1cccc(C2NCCc3c2[nH]c2ccccc32)c1 (stereo not shown) [Compound 1]	not cytotoxic
O=[N+]([O-])c1cccc(C2NCCc3c2[nH]c2ccccc32)c1 (stereo not shown) [Compound 2]	not cytotoxic

Biological target: T1, sodium iodide symporter (NIS) (Rattus norvegicus, UniProt Q63008)
T1 construct: The biological activity of each compound was determined in FRTL5 cells, using a 24-well plate format radioiodide uptake assay; endogenous in cells; host or cells: FRTL5 (rat thyroid-derived cells)
T1 sequence (Q63008 1-618): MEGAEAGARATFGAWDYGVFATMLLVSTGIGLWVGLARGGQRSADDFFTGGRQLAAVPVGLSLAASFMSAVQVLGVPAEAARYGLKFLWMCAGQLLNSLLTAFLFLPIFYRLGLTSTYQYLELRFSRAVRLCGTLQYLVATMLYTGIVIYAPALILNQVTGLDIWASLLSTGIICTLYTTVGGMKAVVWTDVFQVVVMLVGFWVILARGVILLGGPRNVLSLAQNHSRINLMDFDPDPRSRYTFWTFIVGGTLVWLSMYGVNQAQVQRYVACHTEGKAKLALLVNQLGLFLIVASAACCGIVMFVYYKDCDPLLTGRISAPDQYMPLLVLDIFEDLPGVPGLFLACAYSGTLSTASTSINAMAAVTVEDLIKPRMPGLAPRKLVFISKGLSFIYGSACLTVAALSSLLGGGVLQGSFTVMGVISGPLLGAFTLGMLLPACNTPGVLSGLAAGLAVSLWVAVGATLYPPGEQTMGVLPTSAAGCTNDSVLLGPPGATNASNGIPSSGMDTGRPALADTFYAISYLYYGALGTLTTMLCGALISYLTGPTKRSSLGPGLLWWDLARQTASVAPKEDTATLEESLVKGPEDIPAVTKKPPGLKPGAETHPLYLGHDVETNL
Experiment: not given
Details: rat thyroid-derived cells (FRTL5); F. Waltz et al. 2010; read-out: IC50 competitive inhibition of iodide transport in FRTL5; cited from earlier work

SMILES	IC50 [nM]
F[B-](F)(F)F [BF4^−]	750
[O-][Cl+3]([O-])([O-])O [ClO4^−]	140
O=[N+]([O-])O [NO3^−]	250000
F[P-](F)(F)(F)(F)F [PF6^−]	9

Biological target: T1, sodium iodide symporter (NIS)
Experiment: radioiodide uptake assay in FRTL5 cells (24-well plate)
Assay type: cell-based
Details: 60 min, NaI 10 μM, averaged from two to four independent experiments, read-out: IC50 against iodide uptake in FRTL5 cells
Method: In the framework of the invention, the NIS inhibitor is evaluated as follow: rat thyroid-derived cells (FRTL5 cells expressing NIS) are incubated during 1 h with iode and 125-I as a tracer, and in the presence of various concentration of compound. For each tested concentration of compound, the amount of iodide inside the cells is quantified by radioactive counting. The half-maximum inhibitory concentration (IC50) is evaluated for each compound by regression analysis (to the Hill equation) from dose-response data. A detailed protocol is provided in the experimental section, and also in N. Lecat-Guillet et al., ChemMedChem, 2008.
The synthesized compounds were evaluated for their ability to inhibit iodide entrapment in FRTL5 cells using a rodiodide uptake assay. The IC50 values were measured in at least two independent experiments.
The biological activity of each compound was determined in FRTL5 cells, using a 24-well plate format radioiodide uptake assay. Each experiment was run in quadruplicate and at least twice independently. Compound potency was expressed as IC50, the concentration of compound necessary to achieve 50% inhibition of iodide uptake. NaClO4 and the Compound 2 were tested as assay controls.
FRTL5 cells were cultured in Coon's modified F12 medium supplemented with 5% heat-inactivated fetal bovine serum (Invitrogen), 2 mM L-glutamine, 100 U/mL penicillin, 0.1 mg/mL streptomycin, 10 μg/mL insulin, 10 nM hydrocortisone, 10 ng/mL Gly-His-Lys acetate, 1 mU/mL TSH, 5 μg/mL transferrin at 37° C. and 5% CO2. For iodide uptake assays, 1.25 mL of FRTL5 cells with density of 250,000 cells/mL were dispensed in each well of clear flat-bottomed 24-well polystyrene microplates (BD Falcon 3047), and further cultured until confluence reached 70-90% (3-4 days).
Prepare ˜1.5 mL/plate of an intermediate “10-fold” radioiodide uptake buffer solution: NaI (100 μM) and [125-I]-NaI (20 μCi/mL) in uptake buffer (HBSS/Hepes).
For each concentration of compound tested, prepare ˜2.5 mL of compound solutions in uptake buffer (HBSS/Hepes 10 mM) at 1.12 fold the final concentration, so that 450 μL of this solution plus 50 μL of radioiodide uptake buffer makes the desired final concentration (NaI 10 μM final, 1 μCi/well).
The procedure is performed at 20±2° C. in a well ventilated hood. Culture medium of FRTL5 cells is removed by aspiration. Compound solutions are added to the 24-well plate in quadruplicate (450 μL/well) immediately followed by [125I]-NaI radioiodide uptake buffer (50 μL/well, 10 μM final, 1 μCi/well). The 24-well plate is left to stand for 60 min. Radioactive supernatants are removed by aspiration and the cell are washed twice with 500 μL of cold uptake buffer (HBSS/Hepes at 4° C.). Finally, the residual supernatant is removed by aspiration and 500 μL of lysis buffer (SDS 0.1%, triton 0.5%) is added to each well. The 24-well plate is gently agitated for 60-120 min. The radioactive cell lysates are collected and placed into scintillation vials. Scintillation cocktail (Ultima gold LLT, Perkin Elmer) is added to each vial (4 mL) and the radioactivity is measured (Wallac 1409). For IC50 determination, mean DPM values were fitted by non-linear regression (least square) to the four-parameter sigmoidal Hill equation.
IC50 values are averaged from two to four independent experiments. A standard deviation of 2-fold was judged acceptable. NaClO4 and Compound 2 were tested as assay controls.

SMILES	IC50 [nM]
O=[N+]([O-])c1cccc(C2OCCc3c2[nH]c2ccccc32)c1 (stereo not shown) [Compound 4, 1-(3-nitrophenyl)-1,3,4,9-tetrahydropyrano[3,4-b]indole]	5.3
O=[N+]([O-])c1cccc(C2NCCc3c2oc2ccccc32)c1 (stereo not shown) [Compound 5, 1-(3-nitrophenyl)-1,2,3,4-tetrahydro[1]benzofuro[2,3-c]pyridine]	200
O=[N+]([O-])c1cccc(C2SCCc3c2[nH]c2ccccc32)c1 (stereo not shown) [Compound 6, 1-(3-nitrophenyl)-1,3,4,9-tetrahydrathiopyrano[3,4-b]indole]	140
Fc1ccc(F)c(C2OCCc3c2[nH]c2ccccc32)c1 (stereo not shown) [Compound 7, 1-(2,5-difluorophenyl)-1,3,4,9-tetrahydropyrano[3,4-b]indole]	170
c1cc2c(c(C3OCCc4c3[nH]c3ccccc43)c1)OCO2 (stereo not shown) [Compound 8, 1-(benzo[d][1,3]dioxol-4-yl)-1,3,4,9-tetrahydropyrano[3,4-b]indole]	0.41
Clc1cccc(C2OCCc3c2[nH]c2ccccc32)c1 (stereo not shown) [Compound 9, 1-(3-chlorophenyl)-1,3,4,9-tetrahydropyrano[3,4-b]indole]	140
COc1ccc(F)c(C2OCCc3c2[nH]c2ccccc32)c1 (stereo not shown) [Compound 10, 1-(2-fluoro-5-methoxyphenyl)-1,3,4,9-tetrahydropyrano[3,4-b]indole]	57
Brc1cccc(C2OCCc3c2[nH]c2ccccc32)c1 (stereo not shown) [Compound 11, 1-(3-bromophenyl)-1,3,4,9-tetrahydropyrano[3,4-b]indole]	170
Fc1ccc(C2OCCc3c2[nH]c2ccccc32)cc1Cl (stereo not shown) [Compound 12, 1-(3-chloro-4-fluorophenyl)-1,3,4,9-tetrahydropyrano[3,4-b]indole]	200
Nc1cccc(C2OCCc3c2[nH]c2ccccc32)c1 (stereo not shown) [Compound 13, 1-(3-aminophenyl)-1,3,4,9-tetrahydropyrano[3,4-b]indole]	1.1
